From patent US10647713B2 (Nimbus Lakshmi, Inc., priority 2016, dated 2020)

The molecules below were run against human TYK2 (JH2domain-pseudokinase) (Homo sapiens (Human), UniProt P29597) (assay: TYK2 JH2 Domain Binding Assay (KINOMEscan, DiscoveRx)). Conditions: 11-point dilution, duplicate.
Procedure, shortened: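 Kd from duplicate 11-point 3-fold dilutions starting at 30,000 nM, fitted by Hill equation with slope fixed at −1. Compounds (final 0.9% DMSO) displace DNA-tagged HEK293-expressed TYK2 JH2 fusion (<0.1 nM) from ligand-coated beads over 1 h at room temperature; eluted kinase read by qPCR.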

Chain of human TYK2 (JH2domain-pseudokinase) (P29597 556-888): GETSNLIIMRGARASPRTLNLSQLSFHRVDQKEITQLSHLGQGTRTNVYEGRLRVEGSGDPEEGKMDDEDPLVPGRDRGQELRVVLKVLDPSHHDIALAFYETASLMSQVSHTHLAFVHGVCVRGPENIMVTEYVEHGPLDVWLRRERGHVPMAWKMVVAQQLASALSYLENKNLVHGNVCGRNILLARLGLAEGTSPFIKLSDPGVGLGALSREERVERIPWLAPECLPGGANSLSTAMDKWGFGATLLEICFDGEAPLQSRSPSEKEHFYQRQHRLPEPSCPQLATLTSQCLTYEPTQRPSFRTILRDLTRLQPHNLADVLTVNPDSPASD

Kd [nM] | Compound
< 0.1 | Cc1nc2c(Nc3ccc(-c4cn(C)cn4)cc3S(C)(=O)=O)cc(NC(=O)[C@@H]3C[C@@H]3F)nc2[nH]1 [I-250, (1S,2S)-2-fluoro-N-(2-methyl-7-((4-(1-methyl-1H-imidazol-4-yl)-2-(methylsulfonyl)phenyl)amino)-3H-imidazo[4,5-b]pyridin-5-yl)cyclopropane-1-carboxamide]
0.5 to 1 | Cc1ccn(-c2ccc(Nc3cc(NC(=O)C4CC4)nc4[nH]c(C(F)F)nc34)c(N(C)S(C)(=O)=O)c2)n1 [I-139, N-(2-(difluoromethyl)-7-((4-(3-methyl-1H-pyrazol-1-yl)-2-(N-methylmethylsulfonamido)phenyl)amino)-3H-imidazo[4,5-b]pyridin-5-yl)cyclopropanecarboxamide]
1 to 10 | COc1c(Nc2cc(NC(=O)C3CC3)nc3[nH]c(C)nc23)cccc1-c1c(C)nnn1C [I-157, N-(7-((3-(1,4-dimethyl-1H-1,2,3-triazol-5-yl)-2-methoxyphenyl)amino)-2-methyl-3H-imidazo[4,5-b]pyridin-5-yl)cyclopropanecarboxamide]
0.1 to 0.5 | Cc1nc2c(Nc3ccccc3N(C)S(C)(=O)=O)cc(Nc3ccc(C)c(C#N)n3)nc2[nH]1 [I-125, N-(2-((5-((6-cyano-5-methylpyridin-2-yl)amino)-2-methyl-3H-imidazo[4,5-b]pyridin-7-yl)amino)phenyl)-N-methylmethanesulfonamide]
0.1 to 0.5 | Cc1cc(Nc2cc(Nc3ccc(C4=NC(C)(C)CS4)cc3S(C)(=O)=O)c3nc(C)[nH]c3n2)nc(C)n1 [I-564, N7-(4-(4,4-dimethyl-4,5-dihydrothiazol-2-yl)-2-(methylsulfonyl)phenyl)-N5-(2,6-dimethylpyrimidin-4-yl)-2-methyl-3H-imidazo[4,5-b]pyridine-5,7-diamine]
0.5 to 1 | Cc1nc2c(Nc3ccc(-c4cncn4C)cc3N(C)S(C)(=O)=O)cc(NC(=O)C3CC3(F)F)nc2[nH]1 (stereo not drawn) [I-384, 2,2-difluoro-N-(2-methyl-7-((4-(1-methyl-1H-imidazol-5-yl)-2-(N-methylmethylsulfonamido)phenyl)amino)-3H-imidazo[4,5-b]pyridin-5-yl)cyclopropane-1-carboxamide]
0.1 to 0.5 | CS(=O)(=O)c1cc(C2CC2)ccc1Nc1cc(Nc2cc3n(n2)CCOC3)nc2[nH]c(C(F)F)nc12 [I-436, N7-(4-cyclopropyl-2-(methylsulfonyl)phenyl)-2-(difluoromethyl)-N5-(6,7-dihydro-4H-pyrazolo[5,1-c][1,4]oxazin-2-yl)-3H-imidazo[4,5-b]pyridine-5,7-diamine]
1 to 10 | COc1cc(N2CCCC2=O)ccc1Nc1cc(NC(=O)C2CC2)nc2[nH]c(C(F)F)nc12 [I-18]
0.1 to 0.5 | Cc1c(-c2ccc(Nc3cc(NC(=O)C4CC4(F)F)nc4[nH]c(C(F)F)nc34)c(S(C)(=O)=O)c2)cnn1C (stereo not drawn) [I-331, N-(2-(difluoromethyl)-7-((4-(1,5-dimethyl-1H-pyrazol-4-yl)-2-(methylsulfonyl)phenyl)amino)-3H-imidazo[4,5-b]pyridin-5-yl)-2,2-difluorocyclopropane-1-carboxamide]
< 0.1 | Cc1nc2c(Nc3ccc(-c4cncn4C)cc3S(C)(=O)=O)cc(NC(=O)C3CC3)nc2[nH]1 [I-215, N-(2-methyl-7-((4-(1-methyl-1H-imidazol-5-yl)-2-(methylsulfonyl)phenyl)amino)-3H-imidazo[4,5-b]pyridin-5-yl)cyclopropanecarboxamide]
< 0.1 | Cc1nc2c(Nc3ccccc3S(C)(=O)=O)cc(Nc3ccc4c(n3)CCOC4)nc2[nH]1 [I-532]
0.1 to 0.5 | CCOc1ccc(Nc2cc(Nc3ccc(F)cc3S(C)(=O)=O)c3nc(C(F)F)[nH]c3n2)nc1C#N [I-607, 6-((2-(difluoromethyl)-7-((4-fluoro-2-(methylsulfonyl)phenyl)amino)-3H-imidazo[4,5-b]pyridin-5-yl)amino)-3-ethoxypicolinonitrile]
< 0.1 | Cc1nc2c(Nc3ccc([C@H]4CCCCO4)cc3S(C)(=O)=O)cc(Nc3cnc(C)c(C)n3)nc2[nH]1 [I-474, (R)—N5-(5,6-dimethylpyrazin-2-yl)-2-methyl-N7-(2-(methylsulfonyl)-4-(tetrahydro-2H-pyran-2-yl)phenyl)-3H-imidazo[4,5-b]pyridine-5,7-diamine]
0.1 to 0.5 | COc1c(Nc2cc(Nc3ccc(N4CCC4)c(C#N)n3)nc3[nH]c(C(F)F)nc23)cccc1-c1nnn(C)n1 [I-40, 3-(azetidin-1-yl)-6-((2-(difluoromethyl)-7-((2-methoxy-3-(2-methyl-2H-tetrazol-5-yl)phenyl)amino)-3H-imidazo[4,5-b]pyridin-5-yl)amino)picolinonitrile]
0.1 to 0.5 | COCc1ccc(Nc2cc(NC(=O)C3CC3)nc3[nH]c(C(F)F)nc23)c(S(C)(=O)=O)c1 [I-222, N-(2-(difluoromethyl)-7-((4-(methoxymethyl)-2-(methylsulfonyl)phenyl)amino)-3H-imidazo[4,5-b]pyridin-5-yl)cyclopropanecarboxamide]
0.5 to 1 | Cc1nc2c(Nc3ccc(-c4cc(C)n(C)n4)cc3S(C)(=O)=O)cc(Nc3cccc(C(F)(F)F)n3)nc2[nH]1 [I-299, N7-(4-(1,5-dimethyl-1H-pyrazol-3-yl)-2-(methylsulfonyl)phenyl)-2-methyl-N5-(6-(trifluoromethyl)pyridin-2-yl)-3H-imidazo[4,5-b]pyridine-5,7-diamine]
0.5 to 1 | Cn1ccc(-c2ccc(Nc3cc(NC(=O)[C@@H]4CC4(F)F)nc4[nH]c(C(F)F)nc34)c(S(C)(=O)=O)c2)n1 [I-237, (S)—N-(2-(difluoromethyl)-7-((4-(1-methyl-1H-pyrazol-3-yl)-2-(methylsulfonyl)phenyl)amino)-3H-imidazo[4,5-b]pyridin-5-yl)-2,2-difluorocyclopropane-1-carboxamide]
0.1 to 0.5 | Cc1nc2c(Nc3ccc(C4CCC4)cc3S(C)(=O)=O)cc(NC(=O)[C@@H]3C[C@@H]3F)nc2[nH]1 [I-414, (1S,2S)—N-(7-((4-cyclobutyl-2-(methylsulfonyl)phenyl)amino)-2-methyl-3H-imidazo[4,5-b]pyridin-5-yl)-2-fluorocyclopropane-1-carboxamide]
0.1 to 0.5 | CCOc1ccc(Nc2cc(Nc3ccccc3S(C)(=O)=O)c3nc(C(F)F)[nH]c3n2)nc1C#N [I-524]
0.5 to 1 | Cc1nc2c(Nc3ccc(C4=NC(C)(C)CS4)cc3S(C)(=O)=O)cc(NC(=O)C3CC3)nc2[nH]1 [I-568, N-(7-((4-(4,4-dimethyl-4,5-dihydrothiazol-2-yl)-2-(methylsulfonyl)phenyl)amino)-2-methyl-3H-imidazo[4,5-b]pyridin-5-yl)cyclopropanecarboxamide]
0.1 to 0.5 | COc1c(Nc2cc(NC(=O)C3CC3)nc3[nH]c(C(F)F)nc23)cccc1-c1ncn(C)n1 [I-13, N-(2-(difluoromethyl)-7-((2-methoxy-3-(1-methyl-1H-1,2,4-triazol-3-yl)phenyl)amino)-3H-imidazo[4,5-b]pyridin-5-yl)cyclopropanecarboxamide]
1 to 10 | CC1(C)CSC(c2ccc(Nc3cc(NC(=O)C4CC4)nc4[nH]c(C(F)F)nc34)c(S(C)(=O)=O)c2)=N1 [I-567, N-(2-(difluoromethyl)-7-((4-(4,4-dimethyl-4,5-dihydrothiazol-2-yl)-2-(methylsulfonyl)phenyl)amino)-3H-imidazo[4,5-b]pyridin-5-yl)cyclopropanecarboxamide]
0.1 to 0.5 | Cc1ncc(Nc2cc(Nc3ccc(-c4cc(C)n(C)n4)cc3S(C)(=O)=O)c3nc(C(F)F)[nH]c3n2)nc1C [I-300, 2-(difluoromethyl)-N7-(4-(1,5-dimethyl-1H-pyrazol-3-yl)-2-(methylsulfonyl)phenyl)-N5-(5,6-dimethylpyrazin-2-yl)-3H-imidazo[4,5-b]pyridine-5,7-diamine]

Compound | Kd [nM]
Cc1csc(-c2ccc(Nc3cc(NC(=O)C4CC4)nc4[nH]c(C(F)F)nc34)c(S(C)(=O)=O)c2)n1 [I-288, N-(2-(difluoromethyl)-7-((2-(methylsulfonyl)-4-(4-methylthiazol-2-yl)phenyl)amino)-3H-imidazo[4,5-b]pyridin-5-yl)cyclopropanecarboxamide] | 0.1 to 0.5
Cc1ncc(Nc2cc(Nc3ccc(-c4cncn4C)cc3N(C)S(C)(=O)=O)c3nc(C(F)F)[nH]c3n2)nc1C [I-154, N-(2-((2-(difluoromethyl)-5-((5,6-dimethylpyrazin-2-yl)amino)-3H-imidazo[4,5-b]pyridin-7-yl)amino)-5-(1-methyl-1H-imidazol-5-yl)phenyl)-N-methylmethanesulfonamide] | 0.1 to 0.5
Cc1nc2c(Nc3ccc(-c4nc(C)c(C)s4)cc3S(C)(=O)=O)cc(Nc3cnc(C)c(C)n3)nc2[nH]1 [I-466, N5-(5,6-dimethylpyrazin-2-yl)-N7-(4-(4,5-dimethylthiazol-2-yl)-2-(methylsulfonyl)phenyl)-2-methyl-3H-imidazo[4,5-b]pyridine-5,7-diamine] | 0.5 to 1
Cc1nc2c(Nc3ccc([C@H]4CCC(C)(C)CO4)cc3S(C)(=O)=O)cc(Nc3cnc(C)c(C)n3)nc2[nH]1 [I-609, (R)—N5-(5,6-dimethylpyrazin-2-yl)-N7-(4-(5,5-dimethyltetrahydro-2H-pyran-2-yl)-2-(methylsulfonyl)phenyl)-2-methyl-3H-imidazo[4,5-b]pyridine-5,7-diamine] | 0.1 to 0.5
Cc1cc(Nc2cc(Nc3ccc(-c4nc(C)cs4)cc3S(C)(=O)=O)c3nc(C(F)F)[nH]c3n2)nc(C)n1 [I-467, 2-(difluoromethyl)-N5-(2,6-dimethylpyrimidin-4-yl)-N7-(2-(methylsulfonyl)-4-(4-methylthiazol-2-yl)phenyl)-3H-imidazo[4,5-b]pyridine-5,7-diamine] | 0.1 to 0.5
Cc1nc2c(Nc3ccc([C@H]4CCC(C)(C)O4)cc3S(C)(=O)=O)cc(NC(=O)C3CC3)nc2[nH]1 [I-591, (R)—N-(7-((4-(5,5-dimethyltetrahydrofuran-2-yl)-2-(methylsulfonyl)phenyl)amino)-2-methyl-3H-imidazo[4,5-b]pyridineyl)cyclopropanecarboxamide] | 0.1 to 0.5
Cc1nc2c(Nc3ccc(C4CCCO4)cc3S(C)(=O)=O)cc(NC(=O)C3CC3)nc2[nH]1 (stereo not drawn) [I-334, N-(2-methyl-7-((2-(methylsulfonyl)-4-(tetrahydrofuran-2-yl)phenyl)amino)-3H-imidazo[4,5-b]pyridin-5-yl)cyclopropanecarboxamide] | < 0.1
